“And” between values parts separate entries of the source, which are not always exact repeats. Equal values may be shown once.
How the values were obtained:
Allogeneic skin grafts = assay: Allogeneic skin grafts; parameters: species or system human; conditions: in vivo
Method: L-Glu-L-Trp was administered to 17 patients receiving allogeneic skin grafts. 27 patients receiving similar grafts and conventional care served as the control group. L-Glu-L-Trp was administered im as a single daily injection of 50-100 μg on each of 5 consecutive days, or alternatively, intranasally at a dose of 1 μg/kg daily for 5 days. Graft rejection was manifest in 8 of the control patients.

[1] = tested on: resident peritoneal macrophages; assay: Innate immunity in CBA mice: thymic and spleen mass, splenic lymphocytes, resident peritoneal macrophages; assay type: in vivo; conditions: for Spleen / Thymus: CBA mice; for NBT Reduction, Induced: macrophages induced with complement opsonized zymosan; for NBT Reduction, Spontaneous / Neutral Red Uptake Absorbance: resident peritoneal macrophages
Adult thymectomy = assay: Adult thymectomy; parameters: species or system human; conditions: in vivo
Method: A total of 12 thymectomized patients were treated with L-Glu-L-Trp. Prior to therapy, these individuals had experienced frequent serious infections including upper respiratory infections. L-Glu-L-Trp was administered in a single dose of 100 μg daily for 10 days and repeated every 4-6 months.

[2] = Bronchial asthma (Protocol A); assay type: in vivo, human
Method: Sixty five patients (65) with bronchial asthma, including both adults and children, were entered into the trial: 37 patients were treated with L-Glu-L-Trp and 28 (controls) received conventional therapy alone. L-Glu-L-Trp was administered im in a single daily dose of 1 μg/kg on each of 5-10 consecutive days. […] In certain patients it was possible to eliminate the use of prescribed steroids.

[3] = tested on: E-receptors on thymocytes; assay: Expression of E-receptors on trypsin-treated thymocytes (E-RFC); assay type: cell-based, guinea pigs; conditions: for E-RFC (%): trypsin-treated thymocytes
Method: Thymus cells were isolated from male guinea pigs (180-200 g) under standard conditions of tissue mincing and differential centrifugation in Medium 199. Isolated thymocytes were treated with trypsin to remove cell surface E-receptors capable of binding rabbit erythrocytes (E). The percentage of cells capable forming E-rosettes (E-RFC) was decreased by about two-fold under these conditions.
L-Glu-L-Trp has been reported to restore T-cell receptors and E-RFC following incubation at 37° C. Studies were conducted in which the activity of L-Glu-L-Trp dipeptide were compared in the latter assay.
Thymocytes were prepared from 48 guinea pigs, treated with trypsin, and tested for E-RFC.

[4] = tested on: antibiotic-resistant Staphylococci; assay: Chronic skin diseases caused by antibiotic-resistant Staphylococci (Protocol A2); assay type: in vivo, human
E-RFC = assay: Increase in no. E-RFC in vitro after incubation with L-Glu-L-Trp (breast cancer patients); assay type: cell-based, human
Method: Thirty six patients with breast cancer were treated with conventional radiation therapy (i.e., single doses of about 2-3 Gy daily for 10 days; total cumulative patient dose of 20-30 Gy). Following radiotherapy the patients were treated with L-Glu-L-Trp by injection of daily dosages im of 100 μg. The patients had been previously treated with radiation therapy (single doses 2 Gy; total dose 20-30 Gy).
Ram erythrocytes (E) were washed 4× in saline (2000 rpm/10 min.) and suspended at a final concentration of 1% in Medium 199. For determinations of the percentage of E-rosette forming T-lymphocytes (E-RFC) in a sample, 0.1 mL of a prepared lymphocyte suspension (2.5×10^6/ml) was incubated with 0.1 mL of the 1% ram erythrocyte suspension at 37° C. for 10 min., centrifuged at 800-1000 rpm for 5 min., maintained at 4° C. for 2 hrs., and finally resuspended and counted in a Goryaev chamber. Activated T-lymphocytes (i.e., having increased E-RFC capacity) were determined by mixing the test lymphocyte suspension with E, immediately centrifuging for 5 min. at 800-1000 rpm, resuspending the cells and counting the rosettes formed in a Goryaev chamber.

Herpes Zoster = conditions: on the average
influenza = assay: Influenza treatments (Protocol E); parameters: species or system human; conditions: in vivo
Method: One hundred fifty-six patients (156) with influenza were treated with 100 μg L-Glu-L-Trp im or 1 μg/kg intranasally on each of 5-10 consecutive days. A control group constituted with entry of 82 influenza patients who remained untreated.

HIV = assay: HIV-infected individuals: comparative studies with TPI; parameters: species or system human; conditions: in vivo
Method: In separate studies, a total of 21 HIV-infected individuals were studied, including full-blown syndrome, prodromal, and pre-AIDS afflicted individuals who were treated with Thympentin. Thympentin and TPI are thymic gland peptide extracts previously disclosed in the scientific literature.

[5] = psoriasis Group 1, after L-Glu-L-Trp Therapy (n = 30)
[6] = psoriasis, after Combination L-Glu-L-Trp Therapy (n = 30)
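For Patients with improvement in this document: psoriasis patients, 30 per group, with disease activity tracked through laboratory and clinical measures, set against a group receiving traditional therapy alone.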
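For Patients with significant improvement in this document: psoriasis patients, 30 per group, with disease activity tracked through laboratory and clinical measures, set against a group receiving traditional therapy alone.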
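For Patients with total recovery in this document: psoriasis patients, 30 per group, with disease activity tracked through laboratory and clinical measures, set against a group receiving traditional therapy alone.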
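For Shorter length of hospital stay vs Group 2 in this document: psoriasis patients, 30 per group, with disease activity tracked through laboratory and clinical measures, set against a group receiving traditional therapy alone.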

L-Glu-L-Trp
Clinical outcome (Allogeneic skin grafts): prevented infectious complications and delayed graft rejection | B cells Change (% peptide treated/% control) ([1]; 0.01 mg/kg ip daily 6 days): 1.0 | Splenic lymphocytes: B cells (%) ([1]; 0.01 mg/kg ip daily 6 days): 50.8 ± 3.0% | Splenic lymphocytes: T cells (%) ([1]; 0.01 mg/kg ip daily 6 days): 41.2 ± 2.1 % | T cells Change (% peptide treated/% control) ([1]; 0.01 mg/kg ip daily 6 days): ↑ 1.1 | Increase in neutral red uptake by macrophages ([1]; 0.01 mg/kg, not statistically different from control): 75% | Thymic weight ([1]; 1 mg/kg and 0.01 mg/kg ip, 6 days): statistically significant decrease in thymic weight at both dosages | B cells Change (% peptide treated/% control) ([1]; 1.0 mg/kg ip daily 6 days): 1.0 | Splenic lymphocytes: B cells (%) ([1]; 1.0 mg/kg ip daily 6 days): 52.4 ± 1.71% | Splenic lymphocytes: T cells (%) ([1]; 1.0 mg/kg ip daily 6 days): 34.8 ± 2.5% | T cells Change (% peptide treated/% control) ([1]; 1.0 mg/kg ip daily 6 days): ↓ 0.9 | Spleen ([1]; 0.01 mg/kg ip daily 6 days): 69.8 ± 2.6 mg | Thymus ([1]; 0.01 mg/kg ip daily 6 days): 14.8 ± 1.6 mg | Spleen ([1]; 1.0 mg/kg ip daily 6 days): 88.4 ± 4.4 mg | Thymus ([1]; 1.0 mg/kg ip daily 6 days): 14.1 ± 1.3 mg | Increase in NBT reducing activity on induction with complement-opsonized zymosan ([1]; macrophages from treated animals): 1.75 fold and 2 fold | NBT Reduction, Induced ([1]; 0.01 mg/kg): 0.205 ± 0.012 OD540 | NBT Reduction, Induced ([1]; 1 mg/kg): 0.116 ± 0.008 OD540 | NBT Reduction, Spontaneous ([1]; 0.01 mg/kg): 0.101 ± 0.002 OD540 | Neutral Red Uptake Absorbance ([1]; 0.01 mg/kg): 0.604 ± 0.031 | NBT Reduction, Spontaneous ([1]; 1 mg/kg): 0.059 ± 0.003 OD540 | Neutral Red Uptake Absorbance ([1]; 1 mg/kg): 0.469 ± 0.016 | Clinical outcome (Adult thymectomy): reduction of infectious disorders | Patients with disappearance of symptoms of food and drug allergies ([2]; in vivo): more than half | Decrease in the incidence of bronchial asthmatic attacks ([2]; year long follow-up): 4.2 fold | Percentage of E-RFC ([3]; 0.01-1 mg/mL): increased the percentage of E-RFC in trypsin-treated thymocyte cultures | E-RFC (%) ([3]; Conc. 0.0001 mg/ml): 30.3 ± 3.1 % | E-RFC (%) ([3]; Conc. 0.01 mg/ml): 36.8 ± 2.4 % | E-RFC (%) ([3]; Conc. 1 mg/ml): 42.8 ± 3.5 % | Clinical outcome ([4]; L-Glu-L-Trp then individualized antibiotic): complete recovery in all patients | Increase in antibiotic-sensitivity of the patients' Staphylococci ([4]; patients with secondary T-immunodeficiency): more than 100 fold | Increase in no. E-RFC in vitro after incubation with L-Glu-L-Trp (E-RFC; cells taken After L-Glu-L-Trp therapy): 1.27 ± 0.14 | Increase in no. E-RFC in vitro after incubation with L-Glu-L-Trp (E-RFC; cells taken After Radiotherapy): 1.19 ± 0.13 | Increase in no. E-RFC in vitro after incubation with L-Glu-L-Trp (E-RFC; cells taken Before Radiotherapy): 1.23 ± 0.15 | Healing earlier than in the control group (Herpes Zoster): 40% | Patients with improvement (10 days): 7% | Patients with significant improvement (10 days): 60% | Patients with total recovery (10 days): 33% | Shorter length of hospital stay vs Group 2 (average): 4.2 days | Decrease in erythema of skin eruptions sooner than controls (in vivo): 2.8 days | Disappearance of psoriatic rash sooner than controls (in vivo): 7.1 days | Earlier recovery of disease activity than conventional therapy (in vivo): 2 to 3 days | C3 complement [5]: 926 ± 28.4 µg/mL | Ceruloplasmin [5]: 366 ± 11.4 µg/mL | Clotting time (citrated whole blood-recalcified) [5]: 141 ± 2.4 | FDP [5]: 23 ± 1.8 µg/mL | Fibrinogen Concentration [5]: 3.4 ± 0.1 g/L | Fibrinolytic Activity [5]: 200 ± 2.7 min | Kaolin-Cephalin clotting time [5]: 58 ± 0.3 | Orosomucoid [5]: 829 ± 13.2 µg/mL | PT [5]: 23 ± 0.2 | Prealbumin [5]: 357 ± 3.8 µg/mL | Thrombotest [5]: 33 ± 0.5 units | Transferrin [5]: 3.36 ± 0.08 µg/mL | α2-macroglobulin [5]: 2.5 ± 0.01 | Number of Patients Having a Clinical Outcome as: Considerable Improvement (psoriasis Group 1, day 8-10): 18/30 | Number of Patients Having a Clinical Outcome as: Improvement (psoriasis Group 1, day 8-10): 2/30 | Number of Patients Having a Clinical Outcome as: No Improvement (psoriasis Group 1, day 8-10): 3/30 | Number of Patients Having a Clinical Outcome as: Recovery (psoriasis Group 1, day 8-10): 7/30 | Patients with Considerable Improvement (%) (psoriasis Group 1, day 8-10): (60%) | Patients with Improvement (%) (psoriasis Group 1, day 8-10): (7%) | Patients with No Improvement (%) (psoriasis Group 1, day 8-10): (10%) | Patients with Recovery (%) (psoriasis Group 1, day 8-10): (23%) | B-Lymphocytes [6]: 0.53 ± 0.02 ×10^9/L | B-Lymphocytes % Normal Value [6]: (115%) | IgA [6]: 138 ± 6.8 | IgA % Normal Value [6]: (140%) | IgG [6]: 187 ± 1.9 mg/mL | IgG % Normal Value [6]: (140%) | IgM [6]: 193 ± 9.6 | IgM % Normal Value [6]: (152%) | Leukocytes [6]: 9.0 ± 1.4 ×10^9/L | Leukocytes % Normal Value [6]: (155%) | Lymphocytes [6]: 2.5 ± 0.09 ×10^9/L | Lymphocytes % Normal Value [6]: (144%) | T-Lymphocytes [6]: 0.94 ± 0.07 ×10^9/L | T-Lymphocytes % Normal Value [6]: (106%) | Clinical outcome (influenza): accelerated alleviation of symptoms associated with influenza infection | Comparative effectiveness (HIV): more effective than TPI in restoring normal immunologic indices, T-cell functional activity, and T4/T8 ratios

Reference: patent US6368788B1 (priority 1987, dated 2002)
